The text below walks through data of article PMC4735795, “Deciphering the Receptor Repertoire Encoding Specific Odorants by Time-Lapse Single-Cell Array Cytometry” (Scientific Reports, 2016).

What all share (assay): GloSensor cAMP luminescence in HEK293T
What all share (format): cell-based
Common to all, as to conditions: agonist; co-expressed Golf alpha and RTP1S; N = 12

The target of one test is T1, Olfr1258 (mOR232-3) (Mus musculus, UniProt Q8VGN6).
T1 construct: gene Or4c10; full-length from mouse genomic DNA in pCI-neo; N-terminal rhodopsin and myc tags; HEK293T with co-transfected Golf alpha, RTP1S and GloSensor-22F
T1 sequence (Q8VGN6 1-311): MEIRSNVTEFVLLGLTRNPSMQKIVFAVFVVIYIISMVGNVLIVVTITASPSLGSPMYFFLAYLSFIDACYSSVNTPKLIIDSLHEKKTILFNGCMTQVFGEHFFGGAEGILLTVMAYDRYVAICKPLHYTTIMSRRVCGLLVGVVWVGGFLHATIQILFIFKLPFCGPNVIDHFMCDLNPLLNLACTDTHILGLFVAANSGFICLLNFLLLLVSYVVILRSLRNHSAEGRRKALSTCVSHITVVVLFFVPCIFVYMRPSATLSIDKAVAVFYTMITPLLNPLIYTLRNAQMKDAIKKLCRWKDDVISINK

The next test has as its target T2, Olfr168 (mOR271-1) (Mus musculus, UniProt A0PK36).
T2 construct: full-length from mouse genomic DNA in pCI-neo; N-terminal rhodopsin and myc tags; HEK293T with co-transfected Golf alpha, RTP1S and GloSensor-22F
T2 sequence (A0PK36 1-312): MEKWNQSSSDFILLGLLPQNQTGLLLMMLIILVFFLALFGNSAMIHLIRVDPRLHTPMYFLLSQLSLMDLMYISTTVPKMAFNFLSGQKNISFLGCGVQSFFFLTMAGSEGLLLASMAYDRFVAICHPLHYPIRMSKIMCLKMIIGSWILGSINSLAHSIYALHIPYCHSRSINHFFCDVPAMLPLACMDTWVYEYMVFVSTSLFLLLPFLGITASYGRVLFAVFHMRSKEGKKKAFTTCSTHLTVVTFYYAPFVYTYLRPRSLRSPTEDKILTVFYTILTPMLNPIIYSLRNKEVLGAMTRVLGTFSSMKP

Another test deals with T3, Olfr45 (mOR253-2) (Mus musculus, UniProt A0JLW4).
T3 construct: full-length from mouse genomic DNA in pCI-neo; N-terminal rhodopsin and myc tags; HEK293T with co-transfected Golf alpha, RTP1S and GloSensor-22F
T3 sequence (A0JLW4 1-311): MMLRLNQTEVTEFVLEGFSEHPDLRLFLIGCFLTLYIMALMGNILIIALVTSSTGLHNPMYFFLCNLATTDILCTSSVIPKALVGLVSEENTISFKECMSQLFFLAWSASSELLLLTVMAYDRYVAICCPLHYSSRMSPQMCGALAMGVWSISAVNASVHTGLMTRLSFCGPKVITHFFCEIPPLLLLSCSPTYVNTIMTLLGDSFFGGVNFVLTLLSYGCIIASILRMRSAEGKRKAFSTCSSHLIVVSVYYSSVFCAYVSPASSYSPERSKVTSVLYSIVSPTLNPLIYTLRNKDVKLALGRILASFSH

Another test concerns the target T4, Olfr166 (mOR270-1) (Mus musculus, UniProt Q0VEL6).
T4 construct: full-length from mouse genomic DNA in pCI-neo; N-terminal rhodopsin and myc tags; HEK293T with co-transfected Golf alpha, RTP1S and GloSensor-22F
T4 sequence (Q0VEL6 1-312): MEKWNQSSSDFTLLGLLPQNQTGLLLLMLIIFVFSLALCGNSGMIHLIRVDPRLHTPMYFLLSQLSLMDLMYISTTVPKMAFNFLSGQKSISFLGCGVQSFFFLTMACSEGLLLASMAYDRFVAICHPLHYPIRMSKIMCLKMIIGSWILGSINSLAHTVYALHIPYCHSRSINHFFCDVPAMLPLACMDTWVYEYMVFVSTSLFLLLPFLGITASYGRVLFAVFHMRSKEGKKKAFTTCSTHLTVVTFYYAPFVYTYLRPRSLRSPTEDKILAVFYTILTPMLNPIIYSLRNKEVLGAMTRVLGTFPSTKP

In the case of `CCC(C)=O` [2-butanone], the “GloSensor cAMP luminescence in HEK293T” value at Olfr1258 (mOR232-3) is “Olfr1258 was activated by 2-butanone”.
For orientation: EC50 means the concentration needed to bring the measured effect to its halfway point. On to `CCCC(C)=O` [2-pentanone], for which, at Olfr168 (mOR271-1), it took 2.1 ± 0.6 mM to reach a half-maximal effect (EC50).
In the case of `c1ccncc1` [pyridine], the “GloSensor cAMP luminescence in HEK293T” value is “both Olfr45 and Olfr166 were activated by pyridine” at Olfr45 (mOR253-2); “both Olfr45 and Olfr166 were activated by pyridine” on Olfr166 (mOR270-1).
